Reference: publication PMC8132994, “NanoFAST: structure-based design of a small fluorogen-activating protein with only 98 amino acids” (Chemical Science, 2021)

Molecular target: T1, FAST (Halorhodospira halophila, UniProt P16113, C69G/Y94W/T95M/F96I/D97P/Y98T/Q99S/M100R/T101G)
T1 construct: gene pyp; C-terminal His6 tag in NMR structure
T1 sequence (P16113 1-125 C69G/Y94W/T95M/F96I/D97P/Y98T/Q99S/M100R/T101G): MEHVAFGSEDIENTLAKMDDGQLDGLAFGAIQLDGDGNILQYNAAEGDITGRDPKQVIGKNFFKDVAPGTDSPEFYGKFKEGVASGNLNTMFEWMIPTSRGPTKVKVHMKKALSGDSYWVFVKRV
Test: solution NMR structure of the complex
Format: binding
Conditions: pH 7.0, 25 °C (1H NMR spectra); 13C/15N-labelled protein

Structure (SMILES): COc1cc(O)ccc1/C=C1N=C(/C=C/c2ccncc2)N(C)C\1=O [N871b]
- solution NMR structure of the complex: solved the spatial structure of the protein in complex with a promising ligand N871b
